Patent EP0358494B1, “Emulsifiable concentrate of a pesticide” (priority 1988, dated 1990)
Where two headings read alike, the source gives them in different places.

Experiment: Solubility of water in the cosolvent (Table 1)
Assay type: physicochemical
Method: All of the compositions were prepared by simple mechanical agitation of the ingredients together, using a Silveron (Trade Mark) high shear mixer. The nature and water solubility of the various cosolvents employed are as noted in Table 1.

[1] = the cosolvent itself (neat solvent)

| Molecule | Solubility of water in solvent (H20/Solv) [1] [% w/w] | Solubility of water in solvent (H20/Solv) |
| --- | --- | --- |
| COP(=S)(OC)Oc1ccc([N+](=O)[O-])c(C)c1 [fenitrothion] | 0.0014 |  |
| CCSCc1ccccc1OC(=O)NC [ethiofencarb] | 0.18 |  |
| CCOP(=S)(OCC)Oc1nc(Cl)c(Cl)cc1Cl [chlorpyrifos] |  | .0002% w/w |
| COC(C)COC(C)CO (centres unmarked) [Dipropylene glycol monomethyl ether] |  | miscible |
| xylene |  | 0.87% w/w |
